Data set [1] is classed as physicochemical.
Another data set relates to Staphylococcus aureus. The class given is cell-based.

Where “and” joins values, the source holds several entries; their conditions need not be identical. Equal entries are not always repeated. Where two headings read alike, the source gives them in different places. Some results are limits rather than exact numbers.

Take sodium alkylethersulfate: the hydrogen peroxide concentration is 7.6% in data set [1] (T0); 7.6% in data set [1] (T = 15 min); 7.3% and 7.6% in data set [1] (T = 24 h); 6.9% and 7.6% in data set [1] (T = 72 h).
Regarding “sodium alkylsulfate [Sodium alkyl (dodecyl) sulfate]”, the hydrogen peroxide concentration in data set [1] (T0) was 7.6%; in data set [1] (T = 15 min) it was 7.6%; in data set [1] (T = 24 h) it was 7.6%; in data set [1] (T = 72 h), 7.4% and 7.6%.
For the compound `O=S(=O)([O-])[O-].[Cu+2]` [CuSO4, copper sulfate], the “activity along EN 13727 (Active/Inefficient)” value with Staphylococcus aureus was “Inefficient”.
Turning to `OO` [H2O2, hydrogen peroxide], in the data set on Staphylococcus aureus, the “activity along EN 13727 (Active/Inefficient)” value was “Active” and the “activity along EN 13727, log reduction” value was over 5 log.

The record behind these values is patent US20110117209A1 (priority 2008, published 2011).
